The compounds below were run on Huh7 psiCHECK-miR122 Renilla luciferase reporter, 48 h (assay: suppression of miR-122 activity, Renilla luciferase sensor – cell-based, Huh7 psiCHECK-miR122, cherry-pick, dose response (AID 652053)).
In the case of CC(=O)Nc1ccc(S(=O)(=O)Nc2cccc(-c3csc(C)n3)c2)cc1, the AC40 was 8.21 µM.
With Cc1ccc(S(=O)(=O)NCC[C@@H]2CC[C@@H](NC(=O)c3cnccn3)[C@H](CO)O2)cc1 the AC40 was 10.2 µM.
Work on CC(=O)N1CC(C)Sc2ccc(S(=O)(=O)NCc3ccc(F)cc3)cc21 (centres undefined) yielded an AC40 of 4.49 µM.
Work on CCOC(=O)c1ccc(S(=O)(=O)NC2CCCCCCC2)n1C yielded an AC40 of 3.76 µM.
For O=C(CN1CCOCC1)Nc1ccc(Br)cc1C(=O)c1ccccc1, the AC40 was 1.64 µM.
With CN1C(=O)c2cccc3c(S(=O)(=O)NCCc4ccccc4)ccc1c23 the AC40 was 0.281 µM.
For Cc1cc(C(=O)Nc2cccc3c2O[C@H](CN(C)Cc2ccc(C(F)(F)F)cc2)[C@@H](C)CN([C@H](C)CO)C3=O)n(C)n1, the AC40 was 0.943 µM.
For O=C(NNS(=O)(=O)c1ccc(Cl)cc1)c1cccs1, the AC40 was 16.6 µM.
In the case of O=C(Cc1cccc2ccccc12)Nc1ccc(OC(F)F)c(Cl)c1, the AC40 was 4.28 µM.
For Cc1cccc(C)c1NC(=S)NC(C)CCc1ccccc1 (centres undefined), the AC40 was 17 µM.
In the case of Cc1ccccc1NC(=O)c1ccc(NS(=O)(=O)c2cc(C(C)(C)C)cc(C)c2C)cc1, the AC40 was < 0.26 µM.
Cc1csc2c(=O)sc(NC(=O)c3ccco3)nc12 showed an AC40 of 14.5 µM.
C[C@@H]1CN([C@@H](C)CO)C(=O)c2cccc(NC(=O)c3ccc(-c4nccs4)cc3)c2O[C@@H]1CN(C)Cc1ccc(C(=O)Nc2ccccc2N)cc1 gave an AC40 of 4.9 µM.
Cc1c(C(=O)N2CCCCC2)c(S(=O)(=O)Nc2cccc(Br)c2)c(C)n1C showed an AC40 of 1.44 µM.
For Cc1ccc(S(=O)(=O)N(CC(=O)N2CCC(C)CC2)c2cccc(C)c2)cc1, the AC40 was 12 µM.
CCCCNS(=O)(=O)c1ccc2nc(SCC(N)=O)[nH]c2c1 was tested, and the AC40 was 6.07 µM.
CCOc1ccc2cc(C3CC(c4ccco4)=NN3S(C)(=O)=O)c(=O)[nH]c2c1 (centres undefined) showed an AC40 of 7.29 µM.
In the case of O=S(=O)(Nc1ccc(C(O)(C(F)(F)F)C(F)(F)F)cc1)c1cccc2cccnc12, the AC40 was 9.64 µM.
Work on COc1ccc(S(=O)(=O)Nc2cc3c4c(c2)CCC(=O)N4CCC3)cc1C yielded an AC40 of 6.67 µM.
Compound Cc1cccc(NS(=O)(=O)c2csc(C(N)=O)c2)c1 has an AC40 of 3.34 µM.
C[C@H](CO)N1C[C@H](C)[C@H](CN(C)Cc2ccc(C(=O)Nc3ccccc3N)cc2)Oc2c(NS(=O)(=O)c3ccccc3)cccc2C1=O gave an AC40 of 16.1 µM.
For O=S(=O)(Nc1ccc(Cl)cc1)c1ccc2c(c1)CCO2, the AC40 was 2.26 µM.
Cc1cc(Cl)c(Cl)cc1S(=O)(=O)NCCCn1ccnc1 was tested, and the AC40 was 2.79 µM.
For C[C@H](CO)N1C[C@H](C)[C@@H](CN(C)Cc2ccc(Oc3ccccc3)cc2)Oc2c(NC(=O)c3ccncc3)cccc2C1=O, the AC40 was 2.42 µM.
With Cc1ccc(N(CC(=O)NCc2cccs2)S(=O)(=O)c2cccs2)cc1 the AC40 was 29 µM.
For O=C(c1ccc(NS(=O)(=O)c2ccc3c(c2)OCCO3)cc1)N1CCCCC1, the AC40 was 14.8 µM.
Compound CCOc1ccc(S(=O)(=O)Nc2cccc(Cl)c2)cc1 has an AC40 of 3.84 µM.
For C[C@@H]1CN([C@@H](C)CO)C(=O)c2cccc(NC(=O)Nc3ccccc3)c2O[C@H]1CN(C)Cc1ccc(C(F)(F)F)cc1, the AC40 was 2.49 µM.
Cc1ccc(C(=O)NCCSC2CCCCC2)cc1S(=O)(=O)Nc1ccccc1 gave an AC40 of 6.44 µM.
CC12CCC3C(CCC4(O)CC(O)CCC34C=O)C1(O)CCC2C1=CC(=O)OC1 (centres undefined) gave an AC40 of 2.4 µM.
CCc1ccc(-c2cc(C)no2)cc1S(=O)(=O)Nc1ccc(C)cn1 was tested, and the AC40 was 2.33 µM.
For O=C1NC(c2cccc3ccccc23)Nc2ccccc21 (centres undefined), the AC40 was 5.65 µM.
COc1ccc(C(C)(C)C)cc1S(=O)(=O)NCC1CCCO1 (centres undefined) showed an AC40 of 0.329 µM.
CN1c2ccc(-c3ccccc3F)cc2[C@H]2[C@H](CCN2S(=O)(=O)c2ccccc2F)[C@H]1CO was tested, and the AC40 was 2.4 µM.
Compound COc1ccc(OC)c(C2C3=C(COC3=O)Nc3cc4c(cc32)OCO4)c1 (centres undefined) has an AC40 of 17.7 µM.
CCOc1cc(C)c(S(=O)(=O)NC2CCCCC2)cc1C showed an AC40 of 1.49 µM.
Cc1ccccc1S(=O)(=O)N1CC[C@@H]2[C@@H](CO)Nc3ccc(-c4ccc(F)cc4)cc3[C@@H]21 gave an AC40 of 1 µM.
In the case of COc1ccc(S(=O)(=O)NC2CC3CCC2C3)cc1Cl (centres undefined), the AC40 was 4.66 µM.
Work on COC(=O)c1ccc(NS(=O)(=O)c2cc(C)ccc2OC)cc1 yielded an AC40 of 4.89 µM.
With CC(OC(=O)c1cccc(S(=O)(=O)Nc2cccc(C(F)(F)F)c2)c1)C(=O)Nc1ccc2c(c1)OCCO2 (centres undefined) the AC40 was 3.57 µM.
Compound CC1CCN(C(=O)CN(c2ccc3c(c2)OCCO3)S(=O)(=O)c2ccccc2)CC1 has an AC40 of 2.51 µM.
For CCCC(C)NS(=O)(=O)c1ccc(OC)c(C)c1 (centres undefined), the AC40 was 10 µM.
COc1ccc(NS(=O)(=O)c2cc(NC(=O)c3ccc(F)cc3)ccc2OC)cc1 showed an AC40 of 3.14 µM.
Work on COc1ccc(S(=O)(=O)Nc2ccc(C(F)(F)F)cc2)cc1OC yielded an AC40 of 2.12 µM.
In the case of CCCNC(=O)NC[C@H]1[C@@H](c2ccc(C3=CCCC3)cc2)[C@@H](CO)N1C(=O)CC, the AC40 was 10.2 µM.
With CCCCNS(=O)(=O)c1ccc2nc(-c3cccnc3)cc(C(=O)NC3CCCC3)c2c1 the AC40 was 5.37 µM.
Work on COc1ccc(F)cc1S(=O)(=O)Nc1ccc2c(c1)OCO2 yielded an AC40 of 5.47 µM.
In the case of COc1cc(NS(=O)(=O)c2ccc(NC(=S)NC(=O)c3ccco3)cc2)nc(OC)n1, the AC40 was 7.11 µM.
Work on O=S(=O)(NCc1ccccc1)c1ccc2c(c1)OCCO2 yielded an AC40 of 3.42 µM.

From PubChem BioAssay AID652053 (Broad Institute, 2013)
